Experimental data published in patent US20240400571A1, “5,6 UNSATURATED BICYCLIC HETEROCYLES USEFUL AS INHIBITORS OF NOD-LIKE RECEPTOR PROTEIN 3” (Merck Sharp & Dohme LLC, priority 2023, published 2024).

Biological target: T1, NLRP3 inflammasome (Homo sapiens, UniProt Q96P20)
T1 construct: host or cells: THP-1 human monocytic cells, treated with PMA and stimulated with gramicidin
Assay: ASC-SPECK formation in THP-1 cells after gramicidin stimulation (NLRP3 inflammasome activation)
Type: cell-based
Conditions: PMA-treated human monocytic THP-1 cells; compound 1 h before 12.5 μg/ml gramicidin, 3-hour treatment; ASC SPECK imaging; read-out: EC50 values (nM) for Examples that inhibit NLRP3 inflammasome activation
Protocol: The ability of compounds to inhibit NLRP3 inflammasome activation was determined in vitro by monitoring formation of the ASC-SPECK in human monocytic THP-1 cells after stimulation. THP-1 cells (ATCC catalog #TIB-202) were maintained in complete growth media containing Roswell Park Memorial Institute RPMI (ATCC catalog #30-2001), 10% heat inactivated fetal bovine serum, 1× penicillin/streptomycin and 0.05 mM 2-mercaptoethanol. At the start of the assay, undifferentiated THP-1 cells were plated at a density of 20,000 cells per well in a 384-well plate (Poly-D-lysine coated Cell Carrier Ultra microplate, Perkin Elmer catalog #6057500) in complete growth media supplemented with 10 ng/ml phorbol 12-myristate 13-acetate (PMA; Sigma catalog #P8139), and then incubated overnight. The next day, media was replaced with assay media [RPMI (Gibco catalog #11875-093), 0.01% bovine serum albumin (BSA)]. Compounds were serially diluted in DMSO and then added to wells one hour prior to the addition of 12.5 μg/ml Gramicidin (Enzo Lifescience, catalog #ALX-350-233-M005). All incubations were carried out at 37° C. (5% CO2/95% air). Following a 3-hour treatment with gramicidin, cells are fixed with 4% paraformaldehyde and stored at 4° C. until immunofluorescence staining.
Immunofluorescence staining: Anti-ASC antibody (MBL catalog #D086-3) was desalted and labeled with Alexa 488 antibody labeling kit (Thermo catalog #A20181) prior to use as described below. After fixation, the following steps were carried out at room temperature. Cells were first permeabilized with 0.3% Triton X-100 in phosphate-buffered saline (PBS) for 15 minutes and then incubated in blocking buffer containing 5% goat serum, 0.3% tween-20 and 0.03% sodium azide in PBS for 1 hour. Cells were stained with a mixture of ASC-Alexa 488 antibody (diluted 1:200 in blocking buffer) and nuclear stain DRAQ5 (1:5000 in blocking buffer, Thermo catalog #62251) in blocking buffer for 1 hour. Following a wash with 0.3% Tween-20 in PBS, plates were imaged with an Opera Phenix High Content Screening System. The number of DRAQ5 positive cells containing ASC SPECKS were quantified in each well.
Data analysis: EC50 values were calculated by standard curve-fitting analysis using an internally developed program in TIBCO Spotfire software.

T1 sequence (Q96P20 whole entry): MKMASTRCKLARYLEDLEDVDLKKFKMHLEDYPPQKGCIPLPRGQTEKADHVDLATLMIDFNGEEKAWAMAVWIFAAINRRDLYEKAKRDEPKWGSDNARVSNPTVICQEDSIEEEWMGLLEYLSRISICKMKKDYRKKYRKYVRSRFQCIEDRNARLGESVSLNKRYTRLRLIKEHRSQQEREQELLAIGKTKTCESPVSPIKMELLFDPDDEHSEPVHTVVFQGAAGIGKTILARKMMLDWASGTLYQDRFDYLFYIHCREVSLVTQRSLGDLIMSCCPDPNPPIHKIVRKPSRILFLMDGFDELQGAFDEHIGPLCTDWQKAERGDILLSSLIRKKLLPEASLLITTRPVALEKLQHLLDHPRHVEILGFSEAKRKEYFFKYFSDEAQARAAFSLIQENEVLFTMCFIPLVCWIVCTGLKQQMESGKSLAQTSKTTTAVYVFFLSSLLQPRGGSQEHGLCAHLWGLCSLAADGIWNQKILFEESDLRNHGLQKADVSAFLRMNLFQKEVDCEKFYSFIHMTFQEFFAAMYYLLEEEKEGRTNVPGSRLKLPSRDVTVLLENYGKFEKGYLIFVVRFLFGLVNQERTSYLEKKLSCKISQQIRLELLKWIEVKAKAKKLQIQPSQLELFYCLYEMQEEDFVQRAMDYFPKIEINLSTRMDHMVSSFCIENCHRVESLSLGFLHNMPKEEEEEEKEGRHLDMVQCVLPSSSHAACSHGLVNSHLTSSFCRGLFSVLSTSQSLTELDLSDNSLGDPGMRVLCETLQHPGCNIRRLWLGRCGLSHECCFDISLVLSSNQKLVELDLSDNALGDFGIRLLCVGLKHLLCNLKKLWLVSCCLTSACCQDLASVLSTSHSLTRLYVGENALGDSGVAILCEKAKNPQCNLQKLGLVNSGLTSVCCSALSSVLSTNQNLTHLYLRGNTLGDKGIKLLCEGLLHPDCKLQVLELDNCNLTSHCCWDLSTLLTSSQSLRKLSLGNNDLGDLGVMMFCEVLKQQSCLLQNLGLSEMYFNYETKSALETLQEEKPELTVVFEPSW

## Cc1c(-c2ccc(Cl)cc2O)nnc2c1ncn2[C@@H]1CCCNC1 [Example 13, (R)-5-chloro-2-(4-methyl-7-(piperidin-3-yl)-7H-imidazo[4,5-c]pyridazin-3-yl)phenol]
  EC50: 320 nM

## Cc1cc(C(F)(F)F)cc(O)c1-c1cc2ncn(C3CCCN(C)C3)c2nn1 (racemic) [Example 4, (R and S)-3-methyl-2-(7-(1-methylpiperidin-3-yl)-7H-imidazo[4,5-c]pyridazin-3-yl)-5-(trifluoromethyl)phenol]
  EC50: 91 nM

## Cc1c(-c2ccc(C(F)(F)F)cc2O)nnc2c1ncn2[C@H]1CC[C@H]2CC[C@@H]1N2C (single isomer, unassigned) [Example 28]
  EC50: 1410 nM

## CN1CCCC(n2cnc3cc(-c4ccc(C(F)(F)F)cc4O)nnc32)C1 (racemic) [Example 8, (R and S)-2-(7-(1-methylpiperidin-3-yl)-7H-imidazo[4,5-c]pyridazin-3-yl)-5-(trifluoromethyl)phenol]
  EC50: 1000 nM

## Cc1c(-c2ccc(C(F)(F)F)cc2O)nnc2c1ncn2[C@H]1CCCN2CCC[C@H]12 (single isomer, unassigned) [Example 33]
  EC50: 1360 nM

## CCN1CCC[C@@H](n2cnc3cc(-c4c(C)cc(C(F)(F)F)cc4O)nnc32)C1 [Example 3, (R)-2-(7-(1-ethylpiperidin-3-yl)-7H-imidazo[4,5-c]pyridazin-3-yl)-3-methyl-5-(trifluoromethyl)phenol]
  EC50: 21 nM
